Numbers after ± are expanded uncertainties.
How the values were obtained:
[1] = xn = mol fraction of the nth substance listed; settings: 101 kPa, Liquid, Frequency=0.001 MHz, Alternating current cell with electrodes
[2] = 101.33 kPa, Liquid, Alternating current cell with electrodes

[Cl-].[Cs+] [cesium chloride] + [Cl-].[Li+]
electrical conductivity [S/m], [1]
Settings	x1 = 0.42	x1 = 0.425
593.5 K	33.3 ± 0.7	–
598.5 K	35.5 ± 1.2	–
603 K	–	33.3 ± 0.7
603.5 K	37.9 ± 1.2	–
608 K	–	35.5 ± 1.1
610.5 K	41.1 ± 1.2	–
613 K	–	37.5 ± 1.1
613.5 K	42.4 ± 1.3	–
618 K	–	39.8 ± 1.2
623 K	–	42 ± 1.2
623.5 K	47.1 ± 1.3	–
628 K	–	44.2 ± 1.3
628.5 K	49.5 ± 1.4	–
629 K	52.4 ± 1.5	–
633 K	–	46.5 ± 1.3
633.5 K	52 ± 1.5	–
638 K	57.1 ± 1.5	48.8 ± 1.4
643 K	–	51.2 ± 1.4
643.5 K	57 ± 1.4	–
648 K	–	53.4 ± 1.4
650 K	62.1 ± 1.6	–
650.5 K	60.5 ± 1.6	–
653 K	–	55.9 ± 1.5
653.5 K	62 ± 2.1	–
658 K	66.5 ± 1.7	58.2 ± 1.5
663 K	–	60.6 ± 1.5
663.5 K	67.1 ± 1.6	–
668 K	–	63 ± 1.6
670 K	72.1 ± 1.8	–
670.5 K	70.6 ± 1.7	–
673 K	–	65.4 ± 1.6
673.5 K	72.1 ± 2.2	–
678 K	76.6 ± 1.8	67.8 ± 1.7
683 K	–	70.1 ± 1.7
683.5 K	77.2 ± 1.8	–
688 K	–	72.5 ± 1.7
690 K	82.2 ± 2	–
690.5 K	80.6 ± 1.9	–
693 K	–	74.9 ± 1.8
693.5 K	82.2 ± 2.4	–
698 K	86.9 ± 2	77.1 ± 1.8
703 K	–	79.6 ± 1.8
703.5 K	87 ± 1.9	–
708 K	–	81.7 ± 1.9
710 K	91.8 ± 2.3	–
710.5 K	90.2 ± 2.3	–
713 K	–	84 ± 1.9
718 K	97.1 ± 1.9	86.3 ± 1.9
723 K	–	88.4 ± 1.8

O=[N+]([O-])[O-].[K+] [potassium nitrate]
[2]
Settings	electrical conductivity [S/m]
618.5 K	64.7 ± 1.3
623.5 K	66.2 ± 1.3
624.6 K	66.5 ± 1.3
626.5 K	67.1 ± 1.3
627.9 K	67.5 ± 1.4
628.4 K	67.7 ± 1.4
628.5 K	67.7 ± 1.4
630.5 K	68.3 ± 1.4
631.5 K	68.5 ± 1.4
633.5 K	69.1 ± 1.4
633.6 K	69.1 ± 1.4
633.8 K	69.2 ± 1.4
636.7 K	70.1 ± 1.4
638.5 K	70.6 ± 1.4
648.5 K	73.4 ± 1.5
649.6 K	73.7 ± 1.5
653.5 K	74.9 ± 1.5
658.5 K	76.3 ± 1.5
659.6 K	76.6 ± 1.5
663.5 K	77.7 ± 1.6
665 K	78.2 ± 1.6

O=[N+]([O-])[O-].[Na+] [sodium nitrate]
[2]
Settings	electrical conductivity [S/m]
583 K	98.7 ± 2
593 K	103 ± 2.1
603 K	108 ± 2.2
613 K	112 ± 2.2
623 K	116 ± 2.3
633 K	121 ± 2.4
643 K	125 ± 2.5

— the NIST ThermoML archive (doi:10.1021/acs.jced.5b00682)
